In US8835646B2, “Organic compounds” (Novartis AG, priority 2005, dated 2014) one finds IC50 and inhibition data, which are given here for 19 compounds.

The IC50 is the concentration that inhibits the measured activity by half. For orientation: inhibition means how much of the control response was suppressed.

For test [1], the target named is T1, aldosterone synthase (Homo sapiens, UniProt P19099).
T1 construct: host or cells: NCI-H295R
T1 sequence (P19099 25-503): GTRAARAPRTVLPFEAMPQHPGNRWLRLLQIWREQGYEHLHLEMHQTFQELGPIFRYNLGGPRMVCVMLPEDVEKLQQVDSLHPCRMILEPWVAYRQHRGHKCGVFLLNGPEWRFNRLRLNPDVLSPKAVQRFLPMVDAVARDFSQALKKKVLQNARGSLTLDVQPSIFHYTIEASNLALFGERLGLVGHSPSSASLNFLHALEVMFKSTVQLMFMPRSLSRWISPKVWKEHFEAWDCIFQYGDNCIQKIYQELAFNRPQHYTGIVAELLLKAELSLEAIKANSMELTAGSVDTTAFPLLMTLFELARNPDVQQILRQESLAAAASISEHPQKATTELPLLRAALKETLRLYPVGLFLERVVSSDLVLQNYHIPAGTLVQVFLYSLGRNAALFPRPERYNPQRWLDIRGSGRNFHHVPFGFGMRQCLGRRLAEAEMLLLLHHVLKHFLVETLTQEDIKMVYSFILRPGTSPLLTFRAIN
The test is described as follows: cellular aldosterone production in NCI-H295R cells stimulated with Ang II (RIA/SPA). It is filed as cell-based. The settings on record: human adrenocortical carcinoma NCI-H295R cells, 1 μM Ang II, 24 hr. From the text: (§1) Human adrenocortical carcinoma NCl-H295R cell line is obtained from American Type Culture Collection (Manassas, Va.). Insulin/transferrin/selenium (ITS)-A supplement (100×), DMEM/F-12, antibiotic/antimycotic (100×), and fetal calf serum (FCS) are purchased from Gibco (Grand Island, N.Y.). Anti-mouse PVT scintillation proximity assay (SPA) beads and NBS 96-well plates are obtained from Amersham (Piscataway, N.J.) and Corning (Acton, Mass.), respectively. Solid black 96-well flat bottom plates are purchased from Costar (Corning, N.Y.). Aldosterone and angiotensin (Ang II) are purchased from Sigma (St. Louis, Mo.). D-[1,2,6,7-^3H(N)]aldosterone was acquired from PerkinElmer (Boston, Mass.). Nu-serum was a product of BD Biosciences (Franklin Lakes, N.J.). The NADPH regenerating system, dibenzylfluorescein (DBF), and human aromatase Supersomes® are obtained from Gentest (Woburn, Mass.).
For in vitro measurement of aldosterone activity, human adrenocortical carcinoma NCI-H295R cells are seeded in NBS 96-well plates at a density of 25,000 cells/well in 100 μl of a growth medium containing DMEM/F12 supplemented with 10% FCS, 2.5% Nu-serum, 1 μg ITS/ml, and 1× antibiotic/antimycotic. The medium is changed after culturing for 3 days at 37° C. under an atmosphere of 5% CO2/95% air. On the following day, cells are rinsed with 100 μl of DMEM/F12 and incubated with 100 μl of treatment medium containing 1 μM Ang II and a compound at different concentrations in quadruplicate wells at 37° C. for 24 hr. At the end of incubation, 50 μl of medium is withdrawn from each well for measurement of aldosterone production by an RIA using mouse anti-aldosterone monoclonal antibodies.
Measurement of aldosterone activity can also be performed using a 96-well plate format. Each test sample is incubated with 0.02 μCi of D-[1,2,6,7-^3H(N)]aldosterone and 0.3 μg of anti-aldosterone antibody in phosphate-buffered saline (PBS) containing 0.1% Triton X-100, 0.1% bovine serum albumin, and 12% glycerol in a total volume of 200 μl at room temperature for 1 hr. Anti-mouse PVT SPA beads (50 μl) are then added to each well and incubated overnight at room temperature prior to counting in a Microbeta plate counter. The amount of aldosterone in each sample is calculated by comparing with a standard curve generated using known quantities of the hormone.
(§2) Full concentration-response curves of the test compound are performed at least 3 times. The IC50 values are derived using a non-linear least squares curve-fitting program from Microsoft XLfit.

The target of test [2] is T2, human aromatase (Homo sapiens, UniProt P11511).
T2 construct: purchased Gentest (Woburn, Mass.)
T2 sequence (P11511 1-503): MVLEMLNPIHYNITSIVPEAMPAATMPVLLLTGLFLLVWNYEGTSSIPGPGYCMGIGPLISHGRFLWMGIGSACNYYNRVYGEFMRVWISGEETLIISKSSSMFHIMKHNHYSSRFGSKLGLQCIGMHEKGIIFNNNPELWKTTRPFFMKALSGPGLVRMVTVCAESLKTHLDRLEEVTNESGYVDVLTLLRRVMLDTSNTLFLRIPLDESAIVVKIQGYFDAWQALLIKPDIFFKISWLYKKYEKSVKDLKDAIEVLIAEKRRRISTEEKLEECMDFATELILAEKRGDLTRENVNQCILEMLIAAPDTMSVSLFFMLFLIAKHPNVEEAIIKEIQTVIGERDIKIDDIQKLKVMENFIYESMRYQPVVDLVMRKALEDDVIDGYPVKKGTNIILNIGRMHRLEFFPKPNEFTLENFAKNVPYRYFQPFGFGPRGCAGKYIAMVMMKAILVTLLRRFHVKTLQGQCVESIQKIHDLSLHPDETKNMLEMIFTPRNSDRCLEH
The test can be described thus: human aromatase assay (Supersomes, DBF substrate, fluorescence). To be noted: 10000 nM. It is filed as biochemical.
From the text: as §1
To measure aromatase activity, the human aromatase assay is performed in 96-well flat bottom plates according to a published protocol (Stresser et al, 2000) with minor modifications. Briefly, 10 μl of an NADPH regenerating system containing 2.6 mM NADP^+, 6.6 mM glucose 6-phosphate, 6.6 mM MgCl2, and 0.8 U/ml glucose-6-phosphate dehydrogenase in 50 mM potassium phosphate, pH 7.4, is pre-incubated with the test compound at a desired concentration at 30° C. for 10 min in a total volume of 100 μl. Afterwards, 4 pmol of human aromatase, 20 μg of control microsomal protein, and 4 μM DBF in 100 μl of 50 mM potassium phosphate, pH 7.4, is added to each well and incubated at 30° C. for 90 min. The reaction is terminated by the addition of 75 μl of 2 N NaOH to each well. After 2 hr, the product, fluorescein, is measured by a fluorimeter using excitation and emission wavelengths of 485 and 538 nm, respectively.
as §2

Compound `C=C1CC2(CCCCc3cncn32)c2ccc(C#N)cc21` (centres unmarked) [3′-Methylene-2′,3′,6,7,8,9-hexahydrospiro[imidazo[1,5-a]azepine-5,1′-indene]-5′-carbonitrile] returned an IC50 in test [1] of 11 nM. Besides, at 10 µM the inhibition in test [2] was 100%.

For `C=CCC1(c2ccc(C#N)cc2Br)CCCCc2cncn21` (centres unmarked) [4-(5-Allyl-6,7,8,9-tetrahydro-5H-imidazo[1,5-a]azepin-5-yl)-3-bromobenzonitrile], the IC50 in test [1] was 32 nM. The compound further displayed an inhibition at 10 µM in test [2] of 97%.

For the compound `COc1cc(C2CCc3cncn32)ccc1C#N` (centres unmarked) [4-(6,7-Dihydro-5H-pyrrolo[1,2-c]imidazol-5-yl)-2-methoxybenzonitrile], in test [1], the midpoint of inhibition, the IC50, lay at 5 nM. This compound came in with an inhibition at 10 µM in test [2] of 97%.

`Cc1cc(C2CCc3cncn32)ccc1C#N` (centres unmarked) [4-(6,7-Dihydro-5H-pyrrolo[1,2-c]imidazol-5-yl)-2-methylbenzonitrile] showed an IC50 in test [1] of 3 nM. In addition, at 10 µM the inhibition in test [2] was 95%.

`C=Cc1cc(C2CCc3cncn32)ccc1C#N` (centres unmarked) [4-(6,7-Dihydro-5H-pyrrolo[1,2-c]imidazol-5-yl)-2-vinylbenzonitrile] showed an IC50 in test [1] of 8 nM. This compound displayed an inhibition at 10 µM in test [2] of 100%.

Compound `COc1cc(C#N)ccc1C1CCc2cncn21` (centres unmarked) [4-(6,7-Dihydro-5H-pyrrolo[1,2-c]imidazol-5-yl)-3-methoxybenzonitrile] registered an IC50 in test [1] of 18 nM. Also, 10 µM produced 100% inhibition in test [2].

Take `C=Cc1cc(C#N)ccc1C1CCc2cncn21` (centres unmarked) [4-(6,7-Dihydro-5H-pyrrolo[1,2-c]imidazol-5-yl)-3-vinylbenzonitrile]: the midpoint of inhibition in test [1], the IC50, lay at 31 nM. In test [2], at 10 µM the inhibition was 95%.

`CC1CCCC(c2ccc(C#N)cc2-c2ccc(F)cc2)n2cncc21` (centres unmarked) [4′-Fluoro-6-(9-methyl-6,7,8,9-tetrahydro-5H-imidazo[1,5-a]azepin-5-yl)biphenyl-3-carbonitrile] showed an IC50 in test [1] of 2 nM. Moreover, at 10 µM the inhibition in test [2] was 91%.

Regarding `Fc1ccc(C2CCCCc3cncn32)c(Br)c1` (centres unmarked) [5-(2-Bromo-4-fluorophenyl)-6,7,8,9-tetrahydro-5H-imidazo[1,5-a]azepine], in test [1], the IC50 stood at 65 nM. In test [2], this compound returned an inhibition at 10 µM of 92%.

In turn, `COC(=O)C1(c2ccc(C#N)cc2Cl)CCc2cncn21` (centres unmarked) [5-(2-Chloro-4-cyanophenyl)-6,7-dihydro-5H-pyrrolo[1,2-c]imidazole-5-carboxylic acid methyl ester] came in with an IC50 in test [1] of 45 nM. This compound also gave an inhibition at 10 µM in test [2] of 96%.

In test [1], `COc1ccc(C2CCc3cncn32)cc1F` (centres unmarked) [5-(3-fluoro-4-methoxyphenyl)-6,7-dihydro-5H-pyrrolo[1,2-c]imidazole] gave an IC50 of 159 nM. In addition, in test [2], testing at 10 µM gave an inhibition of 100%.

For `COC(=O)C1(c2cc(OC)c(C#N)cc2OC)CCc2cncn21` (centres unmarked) [5-(4-Cyano-2,5-dimethoxyphenyl)-6,7-dihydro-5H-pyrrolo[1,2-c]imidazole-5-carboxylic acid methyl ester], in test [1], the IC50 came out at 113 nM. Further, the inhibition at 10 µM in test [2] is 98%.

`COc1cc(C#N)ccc1C1(C(=O)OCCOC(C)C)CCc2cncn21` (centres unmarked) [5-(4-Cyano-2-methoxyphenyl)-6,7-dihydro-5H-pyrrolo[1,2-c]imidazole-5-carboxylic acid 2-isopropoxyethyl ester] registered an IC50 in test [1] of 5 nM. The compound further returned an inhibition at 10 µM in test [2] of 96%.

`COc1cc(C#N)ccc1C1(C(=O)N(C)Cc2ccc(F)cc2)CCc2cncn21` (centres unmarked) [5-(4-Cyano-2-methoxyphenyl)-6,7-dihydro-5H-pyrrolo[1,2-c]imidazole-5-carboxylic acid (4-fluorobenzyl)methylamide] came in with an IC50 in test [1] of 57 nM. The compound further had an inhibition at 10 µM in test [2] of 85%.

Compound `CCCCOC(=O)C1(c2ccc(C#N)cc2OC)CCc2cncn21` (centres unmarked) [5-(4-Cyano-2-methoxyphenyl)-6,7-dihydro-5H-pyrrolo[1,2-c]imidazole-5-carboxylic acid butyl ester] displayed an IC50 in test [1] of 6 nM. Also, in test [2], at 10 µM the inhibition was 100%.

Take `COC(=O)C1(c2ccc(C#N)cc2OC(F)(F)F)CCc2cncn21` (centres unmarked) [5-(4-Cyano-2-trifluoromethoxyphenyl)-6,7-dihydro-5H-pyrrolo[1,2-c]imidazole-5-carboxylic acid methyl ester]: in test [1], the IC50 was 2 nM. In test [2], this compound showed an inhibition at 10 µM of 99%.

For the compound `Fc1ccc(C2CCCc3cncn32)c(-c2ccsc2)c1` (centres unmarked) [5-(4-Fluoro-2-thiophen-3-yl-phenyl)-5,6,7,8-tetrahydroimidazo[1,5-a]pyridine], the IC50 in test [1] turned out to be 93 nM. This compound had an inhibition at 10 µM in test [2] of 88%.

For `Fc1ccc(C2CCCc3cncn32)c(-c2ccccc2)c1` (centres unmarked) [5-(5-Fluorobiphenyl-2-yl)-5,6,7,8-tetrahydroimidazo[1,5-a]pyridine], the IC50 in test [1] is 57 nM. Further, the inhibition at 10 µM in test [2] worked out at 98%.

`N#Cc1ccc(C2CC3(CC3)c3cncn32)c(F)c1` (centres unmarked) [5′-[2-fluoro-4-cyano-phenyl]-5′,6′-dihydrospiro[cyclopropane-1,7′-pyrrolo[1,2-c]imidazole]]: in test [1], the IC50 came out at 11 nM. In addition, the inhibition at 10 µM in test [2] was found to be 99%.
